This is an account of results in ChEMBL document CHEMBL4831486, “Design, synthesis and biological evaluation of pleuromutilin-Schiff base hybrids as potent anti-MRSA agents in vitro and in vivo” (Eur J Med Chem, 2021).

Data set [1] has as its system Staphylococcus aureus. Put plainly: Antibacterial activity against Methycillin-resistant Staphylococcus aureus ATCC 43300 assessed as inhibition of bacterial growth measured after 24 hrs by broth dilution method. It is filed as functional. On the technique in general: In broth dilution the organism is exposed to a series of concentrations in liquid medium.
The test system of data set [2] is Staphylococcus aureus. Put plainly: Antibacterial activity against Staphylococcus aureus ATCC 29213 assessed as inhibition of bacterial growth measured after 24 hrs by broth dilution method. The data set is classed as functional.
Data set [3] concerns Staphylococcus aureus. Put plainly: Antibacterial activity against Staphylococcus aureus AD3 assessed as inhibition of bacterial growth measured after 24 hrs by broth dilution method. The data set is classed as functional.
The subject of data set [4] is Staphylococcus aureus. Put plainly: Antibacterial activity against Staphylococcus aureus 144 assessed as inhibition of bacterial growth measured after 24 hrs by broth dilution method. It is filed as functional.
For data set [5], the system named is Escherichia coli. In words: Antibacterial activity against Escherichia coli ATCC 25922 assessed as inhibition of bacterial growth measured after 24 hrs by broth dilution method. It is filed as functional.
Data set [6] deals with Staphylococcus aureus. In words: Bactericidal activity against Methycillin-resistant Staphylococcus aureus ATCC 43300 assessed as inhibition of bacterial growth measured after 96 hrs by broth dilution method. The data set is classed as functional.
Data set [7] concerns Staphylococcus aureus. In words: Bactericidal activity against Staphylococcus aureus ATCC 29213 assessed as inhibition of bacterial growth measured after 96 hrs by broth dilution method. It is filed as functional.
Data set [8] relates to Staphylococcus aureus. In words: Bactericidal activity against Staphylococcus aureus AD3 assessed as inhibition of bacterial growth measured after 96 hrs by broth dilution method. The data set is classed as functional.
Data set [9] deals with Staphylococcus aureus. Put plainly: Bactericidal activity against Staphylococcus aureus 144 assessed as inhibition of bacterial growth measured after 96 hrs by broth dilution method. The data set is classed as functional.
The subject of data set [10] is Escherichia coli. In words: Bactericidal activity against Escherichia coli ATCC 25922 assessed as inhibition of bacterial growth measured after 96 hrs by broth dilution method. The data set is classed as functional.
The subject of data set [11] is RAW264.7. Put plainly: Cytotoxicity against mouse RAW264.7 cells assessed as reduced cell viability at 4 ug/ml measured after 16 hrs by MTT assay. The data set is classed as cell-based. As to conditions: raw264.7, 16 h, dose 4 µg/ml. Background: Formazan colour is commonly taken as a measure of viable cells.
The test system of data set [12] is HepG2. Put plainly: Cytotoxicity against human HepG2 cells assessed as reduced cell viability at 4 ug/ml measured after 16 hrs by MTT assay. The data set is classed as cell-based. As to conditions: hepg2, 16 h, dose 4 µg/ml.
Data set [13] deals with Staphylococcus aureus. Put plainly: Bactericidal activity against methicillin-resistant Staphylococcus aureus ATCC 43300 assessed as reduction in bacterial growth at 2X MIC measured for 24 hrs by time kill assay. The data set is classed as functional. Also noted: scale not given: the % may be the effect or the level left.
The subject of data set [14] is Staphylococcus aureus. In words: Antibacterial activity against methicillin-resistant Staphylococcus aureus ATCC 43300 assessed as post antibiotic effect by measuring time required for increase in 1 log10 CFU/ml of bacteria at 2X MIC incubated for 2 hrs followed by compound washout and measured after 20 hrs by time-kill assay (reference value: 2.04 hrs). It is filed as functional.

The subject of data set [15] is Staphylococcus aureus. Put plainly: Antibacterial activity against methicillin-resistant Staphylococcus aureus ATCC 43300 assessed as post antibiotic effect by measuring time required for increase in 1 log10 CFU/ml of bacteria at 4X MIC incubated for 2 hrs followed by compound washout and measured after 20 hrs by time-kill assay (reference value: 2.04 hrs). It is filed as functional.

The subject of data set [16] is Staphylococcus aureus. Put plainly: Antibacterial activity against methicillin-resistant Staphylococcus aureus ATCC 43300 infected in neutropenic CD1 mouse model of thigh infection assessed as reduction in bacterial colony forming unit in thigh at 20 mg/kg, iv qd measured after 24 hrs relative to control. The data set is classed as functional.
For data set [17], the system named is Staphylococcus aureus. Put plainly: Antibacterial activity against methicillin-resistant Staphylococcus aureus ATCC 43300 assessed as inhibition of bacterial growth measured after 8 passages at sub-MIC concentration incubated for 24 hrs by resistant development assay. It is filed as functional.
Data set [18] concerns RAW264.7. In words: Cytotoxicity against mouse RAW264.7 cells assessed as reduced cell viability at 4 ug/ml measured after 16 hrs by MTT assay relative to control. The data set is classed as cell-based. As to conditions: raw264.7, 16 h, at 4 µg/mL.
Data set [19] has as its system Staphylococcus aureus. Put plainly: Bactericidal activity against methicillin-resistant Staphylococcus aureus ATCC 43300 assessed as reduction in bacterial growth at 4X MIC measured for 24 hrs by time kill assay. It is filed as functional. Also noted: scale not given: the % may be the effect or the level left.
The subject of data set [20] is Staphylococcus aureus. In words: Antibacterial activity against methicillin-resistant Staphylococcus aureus ATCC 43300 assessed as post antibiotic effect by measuring time required for increase in 1 log10 CFU/ml of bacteria at 2X MIC incubated for 2 hrs followed by compound washout and measured after 20 hrs by time-kill assay (reference value: 2.51 hrs). It is filed as functional.

In data set [21] the test system is Staphylococcus aureus. In words: Antibacterial activity against methicillin-resistant Staphylococcus aureus ATCC 43300 assessed as post antibiotic effect by measuring time required for increase in 1 log10 CFU/ml of bacteria at 4X MIC incubated for 2 hrs followed by compound washout and measured after 20 hrs by time-kill assay (reference value: 2.51 hrs). The data set is classed as functional.

The subject of data set [22] is Staphylococcus aureus. Put plainly: Antibacterial activity against methicillin-resistant Staphylococcus aureus ATCC 43300 assessed as post antibiotic effect by measuring time required for increase in 1 log10 CFU/ml of bacteria at 2X MIC incubated for 2 hrs followed by compound washout and measured after 20 hrs by time-kill assay (reference value: 2.44 hrs). The data set is classed as functional.

In data set [23] the test system is Staphylococcus aureus. In words: Antibacterial activity against methicillin-resistant Staphylococcus aureus ATCC 43300 assessed as post antibiotic effect by measuring time required for increase in 1 log10 CFU/ml of bacteria at 4X MIC incubated for 2 hrs followed by compound washout and measured after 20 hrs by time-kill assay (reference value: 2.44 hrs). The data set is classed as functional.

Converted amounts (≈) assume the structure as drawn.

`C=C[C@]1(C)C[C@@H](OC(=O)CSc2nnc(C)n2/N=C/c2ccc(N3CCOCC3)cc2)[C@]2(C)[C@H](C)CC[C@]3(CCC(=O)[C@H]32)[C@@H](C)[C@@H]1O`: the MIC (commonly the lowest concentration that inhibits growth of the organism) in data set [1] is 0.5 µg/mL (≈ 0.753 µM); in data set [2], 1 µg/mL (≈ 1.51 µM); in [3], 1 µg/mL (≈ 1.51 µM); in data set [4] it was 2 µg/mL (≈ 3.01 µM); in data set [5] it was above 64 µg/mL. Also, the MBC – broadly, the lowest tested concentration that kills the bacteria rather than only halting them – was 1 µg/mL (≈ 1.51 µM) in data set [6]; 2 µg/mL (≈ 3.01 µM) in data set [7]; 4 µg/mL (≈ 6.03 µM) in data set [8]; 4 µg/mL (≈ 6.03 µM) in data set [9]; above 64 µg/mL in [10]. The Activity result in data set [11] and in [12] was “Non-Toxic” each time.
With `C=C[C@]1(C)C[C@@H](OC(=O)CSc2nnc(C)n2/N=C/c2ccc(-c3ccccn3)cc2)[C@]2(C)[C@H](C)CC[C@]3(CCC(=O)[C@H]32)[C@@H](C)[C@@H]1O`, the MIC is 0.25 µg/mL (≈ 0.381 µM) in [1]; 0.5 µg/mL (≈ 0.762 µM) in data set [2]; 0.5 µg/mL (≈ 0.762 µM) in [3]; 1 µg/mL (≈ 1.52 µM) in data set [4]; above 64 µg/mL in data set [5]; 2 µg/mL (≈ 3.05 µM) in [17]. Also, the MBC is 1 µg/mL (≈ 1.52 µM) in data set [6]; 1 µg/mL (≈ 1.52 µM) in [7]; 2 µg/mL (≈ 3.05 µM) in data set [8]; 4 µg/mL (≈ 6.1 µM) in data set [9]; above 64 µg/mL in [10]. Besides, the Activity in data set [13] is given as 99.9%; in data set [16] it was -2.28 log10CFU/ml; in data set [11], “Non-Toxic”; in data set [12], “Non-Toxic”. In addition, the values for the Time in data set [14] and in [15] were 4.06 h and 4.27 h, respectively.
With `C=C[C@]1(C)C[C@@H](OC(=O)CSc2nnc(C)n2/N=C/c2ccc(N3CCCC3)cc2)[C@]2(C)[C@H](C)CC[C@]3(CCC(=O)[C@H]32)[C@@H](C)[C@@H]1O`, the MIC in [1] was 1 µg/mL (≈ 1.54 µM); in data set [2] it was 2 µg/mL (≈ 3.09 µM); in data set [3], 2 µg/mL (≈ 3.09 µM); in data set [4], 2 µg/mL (≈ 3.09 µM); in data set [5], above 64 µg/mL. The MBC is 2 µg/mL (≈ 3.09 µM) in [6]; 4 µg/mL (≈ 6.17 µM) in [7]; 4 µg/mL (≈ 6.17 µM) in data set [8]; 4 µg/mL (≈ 6.17 µM) in data set [9]; above 64 µg/mL in [10]. The Activity result in data set [11] and in data set [12] was “Non-Toxic” each time.
On to `C=C[C@]1(C)C[C@@H](OC(=O)CSc2nnc(C)n2/N=C/c2ccc(C)cc2)[C@]2(C)[C@H](C)CC[C@]3(CCC(=O)[C@H]32)[C@@H](C)[C@@H]1O`, for which the MIC was 0.5 µg/mL (≈ 0.843 µM) in [1]; 1 µg/mL (≈ 1.69 µM) in [2]; 1 µg/mL (≈ 1.69 µM) in [3]; 2 µg/mL (≈ 3.37 µM) in data set [4]; above 64 µg/mL in [5]. Also, the MBC is 1 µg/mL (≈ 1.69 µM) in data set [6]; 2 µg/mL (≈ 3.37 µM) in data set [7]; 4 µg/mL (≈ 6.75 µM) in [8]; 4 µg/mL (≈ 6.75 µM) in [9]; above 64 µg/mL in data set [10]. Moreover, the Activity result in [12] is “Non-Toxic”; in [18], 30%.
Regarding `C=C[C@]1(C)C[C@@H](OC(=O)CSc2nnc(C)n2/N=C/c2ccc(O)cc2)[C@]2(C)[C@H](C)CC[C@]3(CCC(=O)[C@H]32)[C@@H](C)[C@@H]1O`, the MIC was 0.25 µg/mL (≈ 0.42 µM) in data set [1]; 0.5 µg/mL (≈ 0.841 µM) in data set [2]; 0.5 µg/mL (≈ 0.841 µM) in [3]; 1 µg/mL (≈ 1.68 µM) in data set [4]; above 64 µg/mL in [5]. In addition, the minimum bactericidal concentration (MBC) in data set [6] was 1 µg/mL (≈ 1.68 µM); in [7], 2 µg/mL (≈ 3.36 µM); in data set [8], 2 µg/mL (≈ 3.36 µM); in data set [9] it was 2 µg/mL (≈ 3.36 µM); in [10] it was above 64 µg/mL. The Activity in [19] is recorded as 99.9%; in data set [11] it was “Non-Toxic”; in [12] it was “Non-Toxic”. For the same molecule, the Time in [20] was 2.55 h; in data set [21], 3.22 h.
Take `C=C[C@]1(C)C[C@@H](OC(=O)CSc2nnc(C)n2/N=C/c2ccc(N(CC)CC)cc2)[C@]2(C)[C@H](C)CC[C@]3(CCC(=O)[C@H]32)[C@@H](C)[C@@H]1O`: the MIC in data set [1] was 4 µg/mL (≈ 6.15 µM); in [2], 4 µg/mL (≈ 6.15 µM); in data set [3], 4 µg/mL (≈ 6.15 µM); in [4], 4 µg/mL (≈ 6.15 µM); in [5], above 64 µg/mL. The MBC in data set [6] is 4 µg/mL (≈ 6.15 µM); in data set [7], 8 µg/mL (≈ 12.3 µM); in data set [8] it was 16 µg/mL (≈ 24.6 µM); in data set [9], 8 µg/mL (≈ 12.3 µM); in [10], above 64 µg/mL. Further, the Activity result in data set [11] and in data set [12] was “Non-Toxic” each time.
Turning to `C=C[C@]1(C)C[C@@H](OC(=O)CSCCN(CC)CC)[C@]2(C)[C@H](C)CC[C@]3(CCC(=O)[C@H]32)[C@@H](C)[C@@H]1O` [TIAMULIN], the MIC in [1] was 0.5 µg/mL (≈ 1.01 µM); in [2] it was 1 µg/mL (≈ 2.03 µM); in [3], 1 µg/mL (≈ 2.03 µM); in data set [4], 1 µg/mL (≈ 2.03 µM); in data set [5], above 64 µg/mL; in data set [17], 32 µg/mL (≈ 64.8 µM). Besides, the MBC is 1 µg/mL (≈ 2.03 µM) in [6]; 1 µg/mL (≈ 2.03 µM) in data set [7]; 2 µg/mL (≈ 4.05 µM) in [8]; 2 µg/mL (≈ 4.05 µM) in [9]; above 64 µg/mL in data set [10]. Besides, the Time was 1.72 h in data set [22] and 2.14 h in [23]. Moreover, the Activity in data set [16] is reported as -1.4 log10CFU/ml.
